Some test systems named below: SK-MEL-5; ACHN; SK-OV-3; CCRF-CEM; K562; SK-MEL-28; MOLT-4; HCT-15; UACC-257; TK-10; COLO 205; SNB-19; M14; OVCAR-3; 786-0; SF-295; PC-3; MDA-MB-435; MDA-MB-231.
What all share (experiment): NCI anticancer screen, dose series, 48 h

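Five concentrations, 48 hours, 96-well plates. The concentration for 50% growth inhibition is given as GI50.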 Activity calls are given as the source filed them. No stated cut-off is given here; in the data, active = GI50 up to about 1.1 µM and inactive = higher.

For `NC(=O)CN(CC(N)=O)C(N)=O`, the GI50 in the test with SK-MEL-5, in the test on ACHN, with SK-OV-3, with CCRF-CEM, in the test on K562 and with SK-MEL-28 was > 100 µM (inactive) throughout. For the same molecule, the GI50 in the test with MOLT-4 was > 100 µM (inactive); in the test with HCT-15, over 100 µM; with UACC-257, > 100 µM (inactive); in the test with TK-10, > 100 µM (inactive); with COLO 205, > 100 µM (inactive); with SNB-19, > 100 µM (inactive). Further, the GI50 in the test with M14, in the test with OVCAR-3, in the test on 786-0 and in the test with SF-295 was > 100 µM (inactive) in each case.
`C1CSCCSCCCS[C@@H]2CCCCC2SC1` (some centres not stated): the GI50 in the test on SK-MEL-5 was > 100 µM (inactive); in the test with ACHN it was > 100 µM (inactive); in the test with SK-OV-3, > 100 µM (inactive); with CCRF-CEM, 20.8 µM (inactive); in the test on K562 it was 24.3 µM (inactive); in the test on SK-MEL-28 it was > 100 µM (inactive). Besides, the GI50 with HCT-15 is 15.4 µM; in the test on UACC-257, > 100 µM (inactive); in the test with TK-10 it was > 100 µM (inactive); with COLO 205, 52.5 µM (inactive); in the test on SNB-19 it was > 100 µM (inactive); with M14 it was > 100 µM (inactive). Further, the GI50 with OVCAR-3, with 786-0 and in the test on SF-295 was > 100 µM (inactive) each time.
For `O=C1N/C(=C\[N+](=O)[O-])c2ccccc21`, the GI50 in the test on SK-MEL-5, in the test on ACHN, with SK-OV-3, in the test on CCRF-CEM, in the test on K562 and in the test with SK-MEL-28 was > 100 µM (inactive) throughout. Also, the GI50 was > 100 µM (inactive) in the test on MOLT-4; over 100 µM in the test on HCT-15; > 100 µM (inactive) in the test with UACC-257; > 100 µM (inactive) in the test with TK-10; > 100 µM (inactive) in the test on COLO 205; > 100 µM (inactive) with SNB-19. In addition, the GI50 with M14, in the test with OVCAR-3, in the test with 786-0 and with SF-295 was > 100 µM (inactive) each time.
Regarding `COc1cc(CNc2nc3ccc(C(F)(F)F)cc3nc2-c2ccccc2)cc(OC)c1OC`, the GI50 in the test with SK-MEL-5 was 18.7 µM (inactive); with SK-OV-3 it was 7.18 µM (inactive); in the test on CCRF-CEM it was 15.3 µM (inactive); with K562 it was 18.6 µM (inactive); in the test on SK-MEL-28 it was 55.3 µM (inactive); in the test on MOLT-4, 4.4 µM (inactive). Further, the GI50 with HCT-15 is 25.4 µM; in the test on UACC-257 it was 34.9 µM (inactive); with TK-10, 27.1 µM (inactive); in the test with COLO 205, 38.5 µM (inactive); in the test with SNB-19 it was 65.8 µM (inactive); in the test with M14 it was 40 µM (inactive). Moreover, the GI50 in the test on OVCAR-3 was 26.4 µM (inactive); in the test with 786-0, 28.3 µM (inactive); in the test with SF-295 it was 34.7 µM (inactive).
Regarding `CCOC(=O)N1CCC2(CC1)C[C@](C)(C(C)=O)C(C)O2` (some centres not stated), the GI50 in the test on SK-MEL-5, in the test on PC-3, in the test with ACHN, with SK-OV-3, with MDA-MB-435 and in the test with K562 was > 100 µM (inactive) throughout. The GI50 in the test on SK-MEL-28 was > 100 µM (inactive); in the test with MOLT-4 it was > 100 µM (inactive); in the test on MDA-MB-231 it was > 100 µM (inactive); with HCT-15, over 100 µM; in the test on UACC-257, > 100 µM (inactive); in the test on TK-10, > 100 µM (inactive). For the same molecule, the GI50 in the test with COLO 205, with SNB-19, in the test with M14, in the test with OVCAR-3, in the test on 786-0 and with SF-295 was > 100 µM (inactive) each time.
On to `COc1cc(Br)c(C2OCCCO2)cc1OCc1ccccc1`, for which the GI50 was 46.3 µM (inactive) in the test on SK-MEL-5; 37.9 µM (inactive) with ACHN; > 100 µM (inactive) in the test on SK-OV-3; 94.2 µM (inactive) in the test with CCRF-CEM; 53.2 µM (inactive) with K562; 60.3 µM (inactive) with SK-MEL-28. Moreover, the GI50 with MOLT-4 was 41.6 µM (inactive); with HCT-15, 61.1 µM; in the test with TK-10, > 100 µM (inactive); with COLO 205, > 100 µM (inactive); with SNB-19, > 100 µM (inactive); with M14 it was 67.9 µM (inactive). The GI50 with OVCAR-3 is 47.2 µM (inactive); with 786-0 it was > 100 µM (inactive); in the test with SF-295, > 100 µM (inactive).
As for `CSC1(CC(=O)N2CCCCC2)C(=O)Nc2ccccc21` (configuration not stated), the GI50 with SK-MEL-5, in the test on PC-3, in the test on ACHN, in the test with SK-OV-3, in the test with MDA-MB-435 and in the test with K562 was > 100 µM (inactive) each time. Moreover, the GI50 in the test with SK-MEL-28 was > 100 µM (inactive); with MOLT-4 it was > 100 µM (inactive); with HCT-15, over 100 µM; in the test on UACC-257 it was > 100 µM (inactive); in the test with TK-10, > 100 µM (inactive); in the test on COLO 205, > 100 µM (inactive). Besides, the GI50 with SNB-19, with M14, in the test with OVCAR-3, with 786-0 and in the test on SF-295 was > 100 µM (inactive) each time.
As to `Nc1c(-c2ccccc2-c2c(N)[n+]([O-])c3ccccc3[n+]2[O-])[n+]([O-])c2ccccc2[n+]1[O-]`, the GI50 in the test with SK-MEL-5 is 10.7 µM (inactive); in the test on ACHN, 8.32 µM (inactive); in the test on SK-OV-3, 22.9 µM (inactive); in the test on CCRF-CEM, 2.49 µM (inactive); in the test on K562, 5.74 µM (inactive); in the test with SK-MEL-28 it was 23 µM (inactive). Further, the GI50 with MOLT-4 is 2.1 µM (inactive); in the test on HCT-15, 5.28 µM; with UACC-257, 7.45 µM (inactive); in the test on TK-10 it was 33.7 µM (inactive); in the test on COLO 205, 4.69 µM (inactive); with SNB-19, 7.91 µM (inactive). Besides, the GI50 in the test on M14 is 12.2 µM (inactive); with OVCAR-3, 7.45 µM (inactive); in the test on 786-0, 12 µM (inactive); with SF-295, 12.9 µM (inactive).
As to `COc1cc2cc3c4c(cc(OC)c(OC)c4c2cc1OC)CCN3C(=O)CCC(=O)NCCCN(C)C`, the GI50 in the test on SK-MEL-5 is 14.7 µM (inactive); in the test on ACHN, > 100 µM (inactive); in the test with SK-OV-3, 46.2 µM (inactive); in the test with CCRF-CEM, 29.2 µM (inactive); in the test on K562, 33.6 µM (inactive); in the test on SK-MEL-28 it was 38.4 µM (inactive). Also, the GI50 was 58.9 µM (inactive) with MOLT-4; over 100 µM in the test on HCT-15; > 100 µM (inactive) with UACC-257; > 100 µM (inactive) in the test with TK-10; 32.6 µM (inactive) with COLO 205; > 100 µM (inactive) in the test on SNB-19. In addition, the GI50 in the test on M14 was 17.6 µM (inactive); in the test with OVCAR-3 it was > 100 µM (inactive); in the test on 786-0, 78 µM (inactive); in the test on SF-295 it was 37 µM (inactive).
Take `COc1ccc(C2=C(Cl)c3cc(OC)c(OC)cc3C2Cl)cc1OC` (configuration not stated): the GI50 is 14.6 µM (inactive) in the test on SK-MEL-5; 16.6 µM (inactive) in the test on ACHN; 32.1 µM (inactive) with SK-OV-3; 4.32 µM (inactive) in the test with CCRF-CEM; 10.8 µM (inactive) in the test with K562; 17 µM (inactive) in the test on SK-MEL-28. The GI50 in the test with MOLT-4 was 3.82 µM (inactive); with HCT-15, 18.2 µM; in the test on UACC-257 it was 17.8 µM (inactive); in the test with TK-10 it was 19.4 µM (inactive); in the test on COLO 205, 18.3 µM (inactive); in the test on SNB-19 it was 15.9 µM (inactive). Moreover, the GI50 was 17.7 µM (inactive) with M14, 15.1 µM (inactive) in the test with OVCAR-3, 19.1 µM (inactive) with 786-0 and 18.3 µM (inactive) with SF-295.
Consider `C#CCNC(=O)NC(CCCNC(=O)OCc1ccccc1)C(=O)OCc1ccccc1` (configuration not stated), for which the GI50 was 84.1 µM (inactive) in the test on SK-MEL-5; > 100 µM (inactive) in the test with ACHN; > 100 µM (inactive) in the test with SK-OV-3; > 100 µM (inactive) with CCRF-CEM; > 100 µM (inactive) in the test with K562; > 100 µM (inactive) in the test on SK-MEL-28. Moreover, the GI50 with MOLT-4 was > 100 µM (inactive); with HCT-15 it was over 100 µM; in the test on UACC-257 it was 27.9 µM (inactive); in the test with TK-10, > 100 µM (inactive); in the test with COLO 205, 35.7 µM (inactive); in the test on SNB-19, > 100 µM (inactive). The GI50 is 24.5 µM (inactive) in the test on M14, > 100 µM (inactive) in the test with OVCAR-3, > 100 µM (inactive) in the test on 786-0 and > 100 µM (inactive) with SF-295.
On to `CC(=O)OCC(OC(C)=O)C(OC(C)=O)C(OC(C)=O)C(=O)CNn1c(-c2ccccc2)nc2ccc(Br)cc2c1=O` (configuration not stated), for which the GI50 with SK-MEL-5, in the test on ACHN, in the test on SK-OV-3, in the test on CCRF-CEM, with K562 and in the test on SK-MEL-28 was > 100 µM (inactive) each time. Further, the GI50 in the test on MOLT-4 is 93.3 µM (inactive); with HCT-15, over 100 µM; with UACC-257 it was > 100 µM (inactive); in the test on COLO 205, > 100 µM (inactive); in the test on SNB-19, > 100 µM (inactive); in the test on M14, > 100 µM (inactive). For the same molecule, the GI50 with OVCAR-3, in the test with 786-0 and in the test with SF-295 was > 100 µM (inactive) throughout.
In the case of `COc1ccc(C2=NOP(c3ccccc3)(c3ccccc3)(c3ccccc3)C2)cc1`, the GI50 with SK-MEL-5 was 13.3 µM (inactive); in the test with ACHN, 29.3 µM (inactive); in the test with SK-OV-3, 43.6 µM (inactive); with CCRF-CEM, 7.98 µM (inactive); in the test with K562, 4.25 µM (inactive); with SK-MEL-28, 27.9 µM (inactive). Also, the GI50 is 7.43 µM (inactive) in the test on MOLT-4; 20.4 µM with HCT-15; 28.8 µM (inactive) with UACC-257; > 65.6 µM (inactive) in the test on TK-10; 9.64 µM (inactive) in the test on COLO 205; 51.4 µM (inactive) in the test on SNB-19. Moreover, the GI50 with M14 is 10.8 µM (inactive); in the test on OVCAR-3, 21.7 µM (inactive); with 786-0 it was 21.2 µM (inactive); with SF-295, 2.92 µM (inactive).

(Values after ChEMBL document CHEMBL1201862, “PubChem BioAssay data set” (2004).)
